From ChEMBL document CHEMBL3259542, “Design, synthesis and pharmacological evaluation of novel polycyclic heteroarene ethers as PDE10A inhibitors: Part I” (Bioorg Med Chem Lett, 2014) come the findings set out here.

Data set [1] deals with T1, cAMP and cAMP-inhibited cGMP 3',5'-cyclic phosphodiesterase 10A (Homo sapiens, UniProt Q9Y233). Nature of the data set: Inhibition of N-terminal GST-tagged human recombinant PDE10A assessed as substrate hydrolysis using [3H]cAMP as substrate at 1 uM after 30 mins by two-step radiometric assay.
The test system of a further data set is Liver microsome. Nature of the data set: Drug level in rat liver microsomes treated with 9-Methyl-3-(2-{[3-(pyrimidin-5-yl)pyridin-2-yl]oxy}ethyl)-9H-pyrido[2,3-b]indole at 1 uM after 60 mins by LC-MS/MS analysis. The note with it: 1 h. The class given is ADME.
Data set [2] is described as follows: Retention time of the compound by HPLC analysis. The class given is physicochemical.
In data set [3] the target is T1, cAMP and cAMP-inhibited cGMP 3',5'-cyclic phosphodiesterase 10A. As to the kind of experiment: Inhibition of N-terminal GST-tagged human recombinant PDE10A assessed as substrate hydrolysis using [3H]cAMP as substrate after 30 mins by two-step radiometric assay.
The nature of data set [4]: Metabolic stability in rat liver microsomes assessed as compound remaining at 1 uM after 60 mins. The class given is ADME. The note with it: read-out: Stability. (In general: Liver microsomes are vesicles of endoplasmic reticulum, rich in cytochrome P450 enzymes.)
A short description of data set [5]: Metabolic stability in human liver microsomes assessed as compound remaining at 1 uM after 60 mins. In kind it is ADME. The note with it: read-out: Stability.
The target in data set [6] is cGMP-dependent 3',5'-cyclic phosphodiesterase (Homo sapiens) (UniProt O00408). Nature of the data set: Inhibition of N-terminal GST-tagged human recombinant PDE2A assessed as substrate hydrolysis using cAMP as substrate at 10 uM after 30 mins by homogenous time-resolved fluorescence method.
For a further data set, the species on record is Homo sapiens. Nature of the data set: Selectivity for human recombinant PDE10A over human recombinant PDE2A.
Data set [7] addresses Dual specificity calcium/calmodulin-dependent 3',5'-cyclic nucleotide phosphodiesterase 1A (Homo sapiens) (UniProt P54750). Nature of the data set: Inhibition of N-terminal GST-tagged human recombinant PDE1A assessed as substrate hydrolysis using [3H]cAMP as substrate at 1 uM after 30 mins by two-step radiometric assay.
Data set [8] addresses cGMP-dependent 3',5'-cyclic phosphodiesterase (Homo sapiens) (UniProt O00408). Nature of the data set: Inhibition of N-terminal GST-tagged human recombinant PDE2A assessed as substrate hydrolysis using cAMP as substrate at 1 uM after 30 mins by homogenous time-resolved fluorescence method.
Data set [9] addresses cGMP-inhibited 3',5'-cyclic phosphodiesterase 3A (Homo sapiens) (UniProt Q14432). Nature of the data set: Inhibition of N-terminal GST-tagged human recombinant PDE3A assessed as substrate hydrolysis using cAMP as substrate at 1 uM after 30 mins by homogenous time-resolved fluorescence method.
The target in data set [10] is 3',5'-cyclic-AMP phosphodiesterase 4D (Homo sapiens) (UniProt Q08499). As to the kind of experiment: Inhibition of N-terminal GST-tagged human recombinant PDE4D assessed as substrate hydrolysis using [3H]cAMP as substrate at 1 uM after 30 mins by two-step radiometric assay.
Data set [11] deals with cGMP-specific 3',5'-cyclic phosphodiesterase (Homo sapiens) (UniProt O76074). Nature of the data set: Inhibition of N-terminal GST-tagged human recombinant PDE5A assessed as substrate hydrolysis using [3H]cGMP as substrate at 1 uM after 30 mins by two-step radiometric assay.
The target in data set [12] is High affinity 3',5'-cyclic-AMP phosphodiesterase 7A (Homo sapiens) (UniProt Q13946). Nature of the data set: Inhibition of N-terminal GST-tagged human recombinant PDE7A assessed as substrate hydrolysis using [3H]cAMP as substrate at 1 uM after 30 mins by two-step radiometric assay.
The target of data set [13] is High affinity cAMP-specific and IBMX-insensitive 3',5'-cyclic phosphodiesterase 8A (Homo sapiens) (UniProt O60658). Nature of the data set: Inhibition of N-terminal GST-tagged human recombinant PDE8A assessed as substrate hydrolysis using [3H]cAMP as substrate at 1 uM after 30 mins by two-step radiometric assay.
Data set [14] concerns the target High affinity cGMP-specific 3',5'-cyclic phosphodiesterase 9A (Homo sapiens) (UniProt O76083). Nature of the data set: Inhibition of N-terminal GST-tagged human recombinant PDE9A assessed as substrate hydrolysis using [3H]cGMP as substrate at 1 uM after 30 mins by two-step radiometric assay.
For data set [15], the target named is Dual 3',5'-cyclic-AMP and -GMP phosphodiesterase 11A (Homo sapiens) (UniProt Q9HCR9). As to the kind of experiment: Inhibition of N-terminal GST-tagged human recombinant PDE11A assessed as substrate hydrolysis using [3H]cAMP as substrate at 1 uM after 30 mins by two-step radiometric assay.
Data set [16] in a line: Cmax in Sprague-Dawley rat at 5 mg/kg, po. In kind it is ADME, organism-based. Details: dose 5 mg/kg, route oral. The note with it: in vivo.
Data set [17] can be described thus: AUC (0 to t) in Sprague-Dawley rat at 5 mg/kg, po. More on the design: dose 5 mg/kg, route oral. The note with it: plasma. The class given is ADME, organism-based.
Data set [18] can be described thus: Drug uptake in Sprague-Dawley rat brain at 5 mg/kg, po after 1 hr. In kind it is ADME, organism-based. Details: dose 5 mg/kg, route oral. The note with it: read-out: Drug uptake.

Bounds are passed on as bounds.

T1 sequence (Q9Y233 whole entry): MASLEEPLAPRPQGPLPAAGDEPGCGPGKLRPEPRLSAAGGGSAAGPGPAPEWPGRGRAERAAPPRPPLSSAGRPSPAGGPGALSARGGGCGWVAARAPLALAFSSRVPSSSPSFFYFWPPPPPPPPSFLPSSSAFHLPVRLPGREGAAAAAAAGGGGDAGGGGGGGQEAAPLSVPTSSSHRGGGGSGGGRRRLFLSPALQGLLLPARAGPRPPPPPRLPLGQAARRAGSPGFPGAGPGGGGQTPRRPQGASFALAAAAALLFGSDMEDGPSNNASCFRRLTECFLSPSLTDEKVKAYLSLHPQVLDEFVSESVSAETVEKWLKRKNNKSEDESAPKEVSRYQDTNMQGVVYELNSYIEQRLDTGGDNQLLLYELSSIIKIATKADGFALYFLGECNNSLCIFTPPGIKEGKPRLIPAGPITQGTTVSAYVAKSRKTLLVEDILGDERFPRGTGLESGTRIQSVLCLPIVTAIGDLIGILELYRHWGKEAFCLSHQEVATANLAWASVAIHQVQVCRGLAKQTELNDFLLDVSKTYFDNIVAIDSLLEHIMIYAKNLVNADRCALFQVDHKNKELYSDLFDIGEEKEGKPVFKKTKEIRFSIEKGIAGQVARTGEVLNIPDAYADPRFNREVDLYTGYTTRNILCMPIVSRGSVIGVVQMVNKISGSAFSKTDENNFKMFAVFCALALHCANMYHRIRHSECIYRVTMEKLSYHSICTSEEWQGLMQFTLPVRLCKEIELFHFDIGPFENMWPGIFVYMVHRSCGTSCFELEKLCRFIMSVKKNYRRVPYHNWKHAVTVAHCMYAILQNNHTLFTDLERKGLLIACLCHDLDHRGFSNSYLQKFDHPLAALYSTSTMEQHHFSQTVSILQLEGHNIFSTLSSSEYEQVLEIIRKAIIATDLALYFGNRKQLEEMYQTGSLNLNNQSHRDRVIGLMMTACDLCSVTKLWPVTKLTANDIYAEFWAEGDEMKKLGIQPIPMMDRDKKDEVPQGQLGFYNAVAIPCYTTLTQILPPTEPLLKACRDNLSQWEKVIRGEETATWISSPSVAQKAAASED
Chain of High affinity 3',5'-cyclic-AMP phosphodiesterase 7A (Homo sapiens) (Q13946 whole entry): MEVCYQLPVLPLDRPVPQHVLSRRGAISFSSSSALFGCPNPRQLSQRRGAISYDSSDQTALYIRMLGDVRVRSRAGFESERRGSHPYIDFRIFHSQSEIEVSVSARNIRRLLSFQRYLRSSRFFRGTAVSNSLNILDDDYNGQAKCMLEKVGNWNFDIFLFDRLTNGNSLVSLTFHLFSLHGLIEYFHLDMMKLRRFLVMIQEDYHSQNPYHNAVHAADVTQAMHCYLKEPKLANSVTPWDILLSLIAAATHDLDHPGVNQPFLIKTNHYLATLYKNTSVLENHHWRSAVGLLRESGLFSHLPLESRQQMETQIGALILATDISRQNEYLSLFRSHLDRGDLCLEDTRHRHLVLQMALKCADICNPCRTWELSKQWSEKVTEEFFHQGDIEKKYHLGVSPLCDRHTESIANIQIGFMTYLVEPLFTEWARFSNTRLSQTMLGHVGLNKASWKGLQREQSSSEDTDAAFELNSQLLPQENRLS
Chain of cGMP-dependent 3',5'-cyclic phosphodiesterase (Homo sapiens) (O00408 whole entry): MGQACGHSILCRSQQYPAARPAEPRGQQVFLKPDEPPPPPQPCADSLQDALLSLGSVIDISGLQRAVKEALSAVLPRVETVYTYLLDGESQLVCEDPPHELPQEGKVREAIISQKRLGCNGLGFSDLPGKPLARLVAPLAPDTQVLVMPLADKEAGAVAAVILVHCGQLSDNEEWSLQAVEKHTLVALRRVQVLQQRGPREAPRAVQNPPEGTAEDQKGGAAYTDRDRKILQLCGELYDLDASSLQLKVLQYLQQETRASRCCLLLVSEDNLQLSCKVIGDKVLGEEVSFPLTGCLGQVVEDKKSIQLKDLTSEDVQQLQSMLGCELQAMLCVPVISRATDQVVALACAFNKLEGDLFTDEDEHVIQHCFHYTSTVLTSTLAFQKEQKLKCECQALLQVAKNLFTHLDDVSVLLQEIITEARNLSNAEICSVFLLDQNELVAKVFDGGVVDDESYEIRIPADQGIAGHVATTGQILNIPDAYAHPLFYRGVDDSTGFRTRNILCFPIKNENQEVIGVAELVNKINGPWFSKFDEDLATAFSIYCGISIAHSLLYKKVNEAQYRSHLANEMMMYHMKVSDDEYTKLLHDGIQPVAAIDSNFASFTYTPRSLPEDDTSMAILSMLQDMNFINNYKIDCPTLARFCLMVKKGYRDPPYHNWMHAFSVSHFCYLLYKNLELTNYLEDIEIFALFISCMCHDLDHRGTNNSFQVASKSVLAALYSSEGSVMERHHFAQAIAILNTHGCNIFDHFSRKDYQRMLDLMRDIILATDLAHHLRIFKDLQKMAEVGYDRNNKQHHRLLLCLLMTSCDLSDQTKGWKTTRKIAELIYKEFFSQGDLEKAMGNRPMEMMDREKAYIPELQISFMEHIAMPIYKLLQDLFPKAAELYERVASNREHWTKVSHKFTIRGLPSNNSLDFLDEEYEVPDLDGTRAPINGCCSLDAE
Chain of High affinity cAMP-specific and IBMX-insensitive 3',5'-cyclic phosphodiesterase 8A (Homo sapiens) (O60658 whole entry): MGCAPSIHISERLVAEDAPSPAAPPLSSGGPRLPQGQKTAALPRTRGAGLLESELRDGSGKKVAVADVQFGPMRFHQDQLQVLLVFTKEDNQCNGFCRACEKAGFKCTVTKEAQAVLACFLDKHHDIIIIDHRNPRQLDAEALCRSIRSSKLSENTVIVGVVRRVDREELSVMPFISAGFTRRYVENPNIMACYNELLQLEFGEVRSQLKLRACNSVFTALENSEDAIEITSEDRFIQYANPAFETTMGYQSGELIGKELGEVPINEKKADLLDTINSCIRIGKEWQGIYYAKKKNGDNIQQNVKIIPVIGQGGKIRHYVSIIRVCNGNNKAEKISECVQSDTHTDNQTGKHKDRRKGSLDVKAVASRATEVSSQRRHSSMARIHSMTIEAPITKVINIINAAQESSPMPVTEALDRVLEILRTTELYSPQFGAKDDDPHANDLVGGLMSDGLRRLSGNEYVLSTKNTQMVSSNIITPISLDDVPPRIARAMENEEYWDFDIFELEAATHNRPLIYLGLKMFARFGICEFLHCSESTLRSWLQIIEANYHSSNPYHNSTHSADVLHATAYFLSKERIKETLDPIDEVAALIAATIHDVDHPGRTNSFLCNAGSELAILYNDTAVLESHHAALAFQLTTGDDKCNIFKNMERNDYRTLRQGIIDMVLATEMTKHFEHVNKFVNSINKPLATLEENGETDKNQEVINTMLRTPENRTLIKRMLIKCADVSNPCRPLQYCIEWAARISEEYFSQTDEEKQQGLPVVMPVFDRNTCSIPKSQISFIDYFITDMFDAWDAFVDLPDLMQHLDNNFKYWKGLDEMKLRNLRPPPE
Chain of Dual 3',5'-cyclic-AMP and -GMP phosphodiesterase 11A (Homo sapiens) (Q9HCR9 whole entry, looked up): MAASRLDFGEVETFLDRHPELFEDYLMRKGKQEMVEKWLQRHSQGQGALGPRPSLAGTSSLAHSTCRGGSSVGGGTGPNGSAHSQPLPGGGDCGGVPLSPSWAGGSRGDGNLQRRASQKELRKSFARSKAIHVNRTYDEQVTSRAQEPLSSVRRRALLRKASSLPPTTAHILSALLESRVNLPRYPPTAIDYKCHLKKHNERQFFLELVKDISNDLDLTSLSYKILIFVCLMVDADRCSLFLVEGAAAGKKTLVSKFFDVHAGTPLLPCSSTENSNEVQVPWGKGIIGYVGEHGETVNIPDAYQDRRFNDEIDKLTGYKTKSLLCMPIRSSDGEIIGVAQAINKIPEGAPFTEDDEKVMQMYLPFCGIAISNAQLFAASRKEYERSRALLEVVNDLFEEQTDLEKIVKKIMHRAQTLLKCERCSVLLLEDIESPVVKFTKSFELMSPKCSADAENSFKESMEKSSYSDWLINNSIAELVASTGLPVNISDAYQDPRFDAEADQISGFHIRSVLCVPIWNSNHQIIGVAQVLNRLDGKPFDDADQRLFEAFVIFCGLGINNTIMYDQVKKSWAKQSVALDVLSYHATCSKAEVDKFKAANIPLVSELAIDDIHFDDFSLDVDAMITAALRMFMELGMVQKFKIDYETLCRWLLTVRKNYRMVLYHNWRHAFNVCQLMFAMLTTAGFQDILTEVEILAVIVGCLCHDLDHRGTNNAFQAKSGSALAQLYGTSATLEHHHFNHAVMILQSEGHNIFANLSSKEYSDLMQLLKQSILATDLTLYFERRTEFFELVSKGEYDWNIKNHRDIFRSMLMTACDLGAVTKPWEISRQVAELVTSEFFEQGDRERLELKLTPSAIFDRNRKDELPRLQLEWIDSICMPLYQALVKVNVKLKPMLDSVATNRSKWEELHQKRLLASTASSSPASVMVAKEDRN
Chain of 3',5'-cyclic-AMP phosphodiesterase 4D (Homo sapiens) (Q08499 whole entry): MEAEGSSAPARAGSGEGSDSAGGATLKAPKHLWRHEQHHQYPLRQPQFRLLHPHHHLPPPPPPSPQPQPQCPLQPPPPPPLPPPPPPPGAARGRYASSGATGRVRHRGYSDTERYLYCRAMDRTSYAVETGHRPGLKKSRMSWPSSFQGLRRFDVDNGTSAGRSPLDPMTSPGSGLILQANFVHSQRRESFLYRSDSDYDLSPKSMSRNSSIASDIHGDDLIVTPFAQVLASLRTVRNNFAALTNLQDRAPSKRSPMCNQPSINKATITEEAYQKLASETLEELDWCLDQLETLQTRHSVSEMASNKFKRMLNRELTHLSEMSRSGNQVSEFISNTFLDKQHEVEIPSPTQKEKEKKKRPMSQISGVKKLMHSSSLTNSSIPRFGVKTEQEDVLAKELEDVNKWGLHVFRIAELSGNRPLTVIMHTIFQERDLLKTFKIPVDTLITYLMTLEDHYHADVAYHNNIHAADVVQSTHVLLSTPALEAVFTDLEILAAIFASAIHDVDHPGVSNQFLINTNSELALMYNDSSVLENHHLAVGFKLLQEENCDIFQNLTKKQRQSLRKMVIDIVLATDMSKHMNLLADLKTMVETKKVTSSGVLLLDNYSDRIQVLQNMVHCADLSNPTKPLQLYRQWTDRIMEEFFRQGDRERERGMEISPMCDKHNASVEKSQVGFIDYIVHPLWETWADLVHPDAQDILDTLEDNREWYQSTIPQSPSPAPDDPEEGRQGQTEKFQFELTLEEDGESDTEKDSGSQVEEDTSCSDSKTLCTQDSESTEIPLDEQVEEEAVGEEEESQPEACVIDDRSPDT

In the case of `Cn1c2ccccc2c2cc(COc3nccc(-c4ccc(F)cc4)n3)cnc21`, in [1], the inhibition (commonly the drop in the measured response relative to a control, in per cent) worked out at 23.9%.
With `Cn1c2ccccc2c2cc(/C=C/Oc3c(-c4cncnc4)ccc[n+]3[O-])cnc21`, the Drug metabolism result in the data set on Liver microsome is “metabolite_detected”. In [2], this compound yielded a Retention_time of 9.69 min.
Regarding `Cn1c2ccccc2c2cc(C3(COc4ncccc4-c4cncnc4)CC3)cnc21`, the inhibition in data set [1] worked out at 54.7%. Moreover, the half-maximal inhibitory concentration (IC50) (as a rule, the concentration that inhibits the measured activity by half) in [3] was found to be 971 nM. The remaining at 1 h, 1 µM came out at 17.5% in [4] and 19.6% in data set [5].
On to `Cn1c2ccccc2c2cc(COc3nccc(-c4cncnc4)n3)cnc21`, for which the inhibition in [1] was determined as 23.6%.
For `[O-][n+]1cc(CCOc2ncccc2-c2cncnc2)cc2c3ccccc3[nH]c21`, the Drug metabolism entry in the data set on Liver microsome is listed as “metabolite_detected”. The Retention_time in [2] amounted to 6.78 min.
For `Cn1c2ccccc2c2cc(CCOc3ncccc3-c3ccncc3)cnc21`, the inhibition turned out to be 60% in data set [6]; 95.8% in [1]; 40.9% in data set [7]; 41.4% in [8]; 0% in data set [9]; 0.6% in [10]. In addition, the inhibition in [11] turned out to be 36.5%; in [12], 40.5%; in [13] it was 11.2%; in data set [14], 1.3%; in data set [15], 17.4%. In the data set filed under Homo sapiens, the Selectivity ratio stood at 100. The IC50 in [3] came to 10.4 nM. The remaining at 1 h, 1 µM stood at 0.77% in data set [4] and 0.63% in data set [5].
On to `Cn1c2ccccc2c2cc(CCCOc3ncccc3-c3cccnc3F)cnc21`, for which, in [1], the inhibition was found to be 48.9%. The IC50 in data set [3] came to 5940 nM.
As for `Cn1c2ccccc2c2cc(/C=C/Oc3ncccc3-c3cncnc3)cnc21`, in the data set with Liver microsome, the Drug metabolism entry is given as “metabolite_detected”. The same compound showed a Retention_time in [2] of 11.81 min.
As to `Cn1c2ccccc2c2cc(CCOc3ncccc3-c3ccc(Cl)cc3)cnc21`, the inhibition in data set [1] was determined as 75.7%. Further, the IC50 in data set [3] was found to be 592 nM.
Regarding `Cn1cc(COc2ncccc2-c2ccncc2)c2nc3ccccc3cc21`, the inhibition in data set [1] turned out to be 24.6%.
For the compound `Cn1c2ccccc2c2cc(/C=C\Oc3ncccc3-c3cncnc3)cnc21`, the Drug metabolism result in the data set with Liver microsome was “metabolite_detected”. Moreover, the Retention_time in data set [2] was 10.86 min.
For the compound `Cn1cc(COc2nccc(-c3ccc(F)cc3)n2)c2nc3ccccc3cc21`, the inhibition in data set [1] was 12.1%.
For the compound `Cn1c2ccccc2c2cc(CCCOc3ncccc3-c3cncnc3)cnc21`, the inhibition in data set [1] worked out at 43.1%. For the same compound, the IC50 in [3] is 3220 nM.
Consider `Cn1c2ccccc2c2cc(COc3nccnc3-c3cncnc3)cnc21`, for which, in data set [1], the inhibition turned out to be 10.9%.
As for `Cn1c2ccccc2c2cc(CCOc3nccnc3-c3ccc(F)cc3)cnc21`, the inhibition in data set [6] is 60%; in data set [1], 85.4%; in data set [7] it was 13.5%; in data set [8] it was 11.9%; in [9] it was 0.1%; in data set [10] it was 0.7%. Further, the inhibition is 5.9% in data set [11]; 18.3% in data set [12]; 0% in data set [13]; 1.6% in data set [14]; 18.6% in data set [15]. Besides, the Selectivity ratio in the data set listed under Homo sapiens turned out to be 100. Also, in data set [3], the IC50 came to 41.5 nM. The remaining at 1 h, 1 µM in data set [4] came out at 3.19%; in [5], 9.92%. Also, in data set [16], the peak level (Cmax) was 103 ng/mL. Moreover, the AUC(0-t) (commonly the area under the concentration-time curve up to a stated or last time point) in [17] is 190 ng·h/mL. In addition, the concentration at 1 h in [18] is under 5.4 ng/mL.
As to `Cn1c2ccccc2c2cc(CCOc3nccnc3-c3cncnc3)cnc21`, the inhibition in data set [1] turned out to be 83.4%. In addition, the IC50 in [3] amounted to 67.4 nM.
Turning to `C[N+]1([O-])c2ccccc2-c2cc(/C=C/Oc3ncccc3-c3cncnc3)cnc21` (centres undefined), the Drug metabolism result in the data set with Liver microsome was “metabolite_detected”. Besides, in data set [2], the Retention_time is recorded as 8.64 min.
`Cn1c2ccccc2c2cc(CCCOc3ncccc3N3CCOCC3)cnc21`: the inhibition in [1] was 19.1%.
For the compound `Cn1c2ccccc2c2cc(/C=C/Oc3ncccc3-c3cncnc3)c[n+]([O-])c21`, the Drug metabolism result in the data set with Liver microsome is given as “metabolite_detected”. The compound also returned a Retention_time in data set [2] of 9.23 min.
Consider `Cn1c2ccccc2c2cc(CCOc3ncccc3-c3ccc(F)cc3)cnc21`, for which the inhibition in data set [1] worked out at 88.5%. In data set [3], the IC50 is 68.5 nM.
Consider `OC(COc1ncccc1-c1cncnc1)c1cnc2[nH]c3ccccc3c2c1` (centres undefined), for which, in the data set on Liver microsome, the Drug metabolism result is reported as “metabolite_detected”. This compound also registered a Retention_time in data set [2] of 9.06 min.
On to `Cn1c2ccccc2c2cc(CCOc3nccnc3-c3ccc(Cl)cc3)cnc21`, for which, in [1], the inhibition was determined as 87.2%. Also, the IC50 in data set [3] was found to be 188 nM.
Regarding `FC(F)(F)Cn1cc(-c2ccncc2)c(-c2ccc(OCc3ccc4ccccc4n3)cc2)n1`, the IC50 in [3] was 1.41 nM.
`Cn1c2ccccc2c2cc(CCOc3nccnc3-c3ccncc3)cnc21`: the inhibition in data set [6] stood at 60%; in data set [1] it was 97.2%; in data set [7], 30.1%; in data set [8] it was 34.5%; in data set [9], 0.2%; in data set [10], 11.9%. Also, the inhibition was found to be 13.6% in data set [11]; 27% in data set [12]; 2% in data set [13]; 4.3% in data set [14]; 21.7% in data set [15]. For the same compound, in the data set listed under Homo sapiens, the Selectivity ratio was determined as 100. Also, in data set [3], the IC50 was 11.2 nM. Moreover, the remaining at 1 h, 1 µM in data set [4] was 1.03%; in data set [5], 0.72%.
With `Cn1c2ccccc2c2cc(C(O)COc3ncccc3-c3cncnc3)cnc21` (centres undefined), in the data set with Liver microsome, the Drug metabolism result was “metabolite_detected”. This compound also registered a Retention_time in data set [2] of 11.55 min.
Regarding `Cn1cc(COc2ncccc2-c2cncnc2)c2nc3ccccc3cc21`, in data set [1], the inhibition was 30.7%.
On to `c1cnc(OCCc2cnc3[nH]c4ccccc4c3c2)c(-c2cncnc2)c1`, for which the Drug metabolism result in the data set with Liver microsome is “metabolite_detected”. This compound displayed a Retention_time in data set [2] of 10.86 min.
Turning to `Cn1cc(CCOc2nccnc2-c2cncnc2)c2nc3ccccc3cc21`, the inhibition in data set [1] was 82.1%. The IC50 in data set [3] was found to be 123 nM. Moreover, the remaining at 1 h, 1 µM in data set [4] was 0.27%; in data set [5] it was 0.11%.
For the compound `FC(F)n1c2ccccc2c2cc(CCOc3ncccc3-c3cncnc3)cnc21`, the inhibition in [6] came to 60%; in data set [1], 96.3%; in [7] it was 14%; in data set [8] it was 40.6%; in data set [9], 0.4%; in [10], 3.8%. For the same compound, the inhibition in data set [11] came out at 16.7%; in data set [12], 20.8%; in [13], 2.1%; in [14], 5.3%; in [15], 15.8%. The Selectivity ratio in the data set filed under Homo sapiens was 100. Moreover, in [3], the IC50 is 33.2 nM. The remaining at 1 h, 1 µM in data set [4] stood at 41.2%; in data set [5], 51.1%.
